Source: publication PMC12287140, “Branched-chain amino acid catabolism initiates volatile synthesis in Gentiana triflora” (Planta, 2025)

Experiments:
GeBCAT1 = system: T1, GeBCAT1; assay: deamination assay, LC-TOF-MS of PFBHA-derivatized keto acid; type: biochemical, Gentiana triflora; settings: 120 mM alpha-ketoglutarate, 0.16 mM PLP, 4 mM DTT, 0.1 M Tris-HCl pH 8.0, 33 °C
T1 construct: open reading frame (390 aa, predicted mitochondrial transit peptide) in pEU-FLAG-GST-GW; FLAG-GST tag, no cleavage told; wheat cell-free synthesis, GST-purified
Description: deamination assay, LC-TOF-MS of PFBHA-derivatized keto acid on GeBCAT1 | Km and Vmax values of recombinant GeBCAT1 and GeBCAT2 are shown for different substrates

GeBCAT2 = system: T2, GeBCAT2; assay: as above; type: biochemical, Gentiana triflora; settings: 120 mM alpha-ketoglutarate, 0.16 mM PLP, 4 mM DTT, 0.1 M Tris-HCl pH 8.0, 33 °C
T2 construct: open reading frame (411 aa, predicted plastid transit peptide) in pEU-FLAG-GST-GW; FLAG-GST tag, no cleavage told; wheat cell-free synthesis, GST-purified
Description: deamination assay, LC-TOF-MS of PFBHA-derivatized keto acid on GeBCAT2 | Km and Vmax values of recombinant GeBCAT1 and GeBCAT2 are shown for different substrates

CC[C@H](C)[C@H](N)C(=O)O [Ile]
Km (GeBCAT1): 88 ± 40 µM | Km (GeBCAT2): 310 ± 15 µM

CC(C)C[C@H](N)C(=O)O [Leu]
Km (GeBCAT1): 780 ± 280 µM | Km (GeBCAT2): 650 ± 29 µM

CC(C)[C@H](N)C(=O)O [Val]
Km (GeBCAT1): 79 ± 15 µM | Km (GeBCAT2): 4570 ± 320 µM
